Read-outs that look alike come from different tables or passages of the source.
Tests used:
[1] = system: mouse peritoneal macrophages; test: Suppression of foaming of macrophages: cholesterol ester yield in mouse peritoneal macrophages loaded with liposomes; type: cell-based; conditions: for activity at 5 µM: Mus musculus, Peritoneal macrophage, 16 h, read-out: CE yield (%)
Method: Activity of the compounds of the present invention for suppressing the foaming of macrophages, which triggers arterial sclerosis, was examined.
(1) In vitro experiment using mouse peritoneal macrophages,
15-Week old female ICR mice (Nippon SLC) were subjected to bleeding by cutting off their cervicalis, and Hanks buffer (Nippon Seiyaku) was injected into their peritoneal cavities. After abdominal regions of the mice were massaged, the buffer was recovered immediately, and then the resulting buffer was centrifuged at 1,000 r.p.m. for five minutes to collect peritoneal macrophages. Then, the collected macrophages were suspended in GTI medium (Wako Pure Chemical Industries), and inoculated onto a 24-well microtiter plate. After the macrophages were cultivated at 37° C. under 5% CO2 for two hours, the culture medium was changed with Dulbecco Modified Eagle Medium (MEM, Nippon Seiyaku). The macrophages were further cultivated at 37° C. under 5% CO2 for 16 hours, and then a test compound and liposomes were added to the culture.
1) Test compound: dissolved in DMSO (Wako Pure Chemical Industries),
2) Liposomes: PC/PS/DCP/CHOL=50/50/10/75 (nmol)
After cultivation was further continued at 37° C. under 5% CO2 for 16 hours, lipid fraction was extracted with chloroform and methanol. The extracted lipid fraction was dissolved in isopropyl alcohol, and the produced cholesterol ester (CE) was quantified by an enzymatic luminescence method. Yield of the cholesterol ester was calculated as a relative ratio based on yield of the control as 100% where no test compound was added.

[2] = AUC (area under the plasma concentration) after oral administration to mice
Method: (§1) The compounds of the present invention were orally administered to mice to evaluate AUC (area under the plasma concentration).
(§2) 8-week old BALB/cA male mice (Charles River Japan) were conditioned for one week after arrival and then used. Each test substance was dispersed in a medium containing 10% macrogol (Yoshida Seiyaku) and 90% physiological saline (Hikari Seiyaku) to prepare 5 mg/ml test substance suspension. Each prepared suspension was orally administered to 6 mice (30 mg/kg) at the same time, and cervical spine of one mouse was dislocated at each time, i.e., immediately after the administration, and 30 minutes, 1 hour, 2 hours, 4 hours and 6 hours after the administration. The whole blood was collected from abdominal aorta and blood level of the test substance was determined by liquid chromatography.

[3] = mouse, in vivo, po, 30 mg/kg
Method: as §1, §2

[4] = test compound 5 μM, cholesterol ester yield relative to control without test compound = 100%, smaller value = more potent suppression
[5] = male, BALB/cA, mouse, plasma, po, 30 mg/kg

| Molecule | AUC [2, 5] [ng·h/mL] | activity at 5 µM [1, 4] [%] | other results |
| --- | --- | --- | --- |
| CC(=O)Nc1ccc2nc(SCCCCCOc3ccccn3)[nH]c2c1 [Compound 18, 5-acetylamino-2-(5-(2-pyridyloxy)pentylthio)benzimidazole] | – | 19 | – |
| c1ccc2[nH]c(SCCCCCCNc3nc4ccccc4o3)nc2c1 [Compound 32, 2-(6-(2-benzoxazolylamino)hexylthio)benzimidazole] | – | 12 | – |
| c1ccc2[nH]c(SCCCCCNc3nc4ccccc4s3)nc2c1 [Compound 30, 2-(5-(2-benzothiazolylamino)pentylthio)benzimidazole] | 230 | 4.2 | – |
| c1ccc2[nH]c(SCCOCCNc3nc4ccccc4o3)nc2c1 [Compound 35, 2-(2-(2-(2-benzoxazolylamino)ethoxy)ethylthio)-benzimidazole] | – | 9.7 | – |
| C=C(C)n1c(OCCCCCSc2nc3ccccc3[nH]2)nc2ccccc21 [Compound 20, 2-(5-(2-benzimidazolylthio)pentyloxy)-1-isopropenyl-benzimidazole] | – | 22 | – |
| c1ccc(OCCCCCCSc2nc3ccccc3[nH]2)nc1 [Compound 12, 2-(6-(2-pyridyloxy)hexylthio)benzimidazole] | – | 13 | – |
| Clc1cc2nc(SCCCCCOc3ccccn3)[nH]c2cc1Cl [Compound 15, 5,6-dichloro-2-(5-(2-pyridyloxy)pentylthio)benzimidazole] | 680 | 18 | – |
| Cn1c(SCCCCCOc2ccccn2)nc2ccccc21 [Compound 23, 1-Methyl-2-(5-(2-pyridyloxy)pentylthio)benzimidazole] | 860 | 21 | – |
| 2-(5-(1-phenyltetrazolyl-5-oxy)pentylthio)benzimidazole [Compound 2] | – | – | CE yield (%) [1]: 21%; AUC ([2]; oral 30 mg/kg suspension, BALB/cA male mice, blood level 0 to 6 hours by liquid chromatography): 1220 ng·h/mL |
| COCn1c(SCCCCCNc2cnccn2)nc2ccccc21 [Compound 28, 1-methoxymethyl-2-(5-(N-(2-pyrazyl)amino)pentylthio)-benzimidazole] | – | – | CE yield (%) [1, 4]: 24%; AUC [3]: 410 ng·h/mL |
| c1ccc(OCCCCCCCCSc2nc3ccccc3[nH]2)nc1 [Compound 10, 2-(8-(2-pyridyloxy)octylthio)benzimidazole] | – | 12 | – |
| c1ccc2[nH]c(SCCCCCNc3nc[nH]n3)nc2c1 [Compound 29, 2-(5-(3-(1,2,4-triazyl)amino)pentylthio)benzimidazole] | – | – | CE yield (%) [1, 4]: 12%; AUC [3]: 180 ng·h/mL |
| CCC(=O)n1c(SCCCCCOc2ccccn2)nc2ccccc21 [Compound 24, 1-Propionyl-2-(5-(2-pyridyloxy)pentylthio)benzimidazole] | – | 25 | – |
| c1ccc2[nH]c(SCCOCCOCCNc3nc4ccccc4o3)nc2c1 [Compound 36, 2-(2-(2-(2-(2-benzoxazolylamino)ethoxy)ethoxy)ethylthio)-benzimidazole] | 680 | 12 | – |

Now from value to molecule, other results behind:

| AUC [2, 5] [ng·h/mL] | Molecule | activity at 5 µM [1, 4] [%] | other results |
| --- | --- | --- | --- |
| 2420 | c1ccc2[nH]c(OCCCCCSc3nc4ccccc4[nH]3)nc2c1 [Compound 21, 2-(5-(2-benzimidazolylthio)pentyloxy)benzimidazole] | 18 | – |
| 240 | c1ccc(OCCCCSc2nc3ccccc3[nH]2)nc1 [Compound 11, 2-(4-(2-pyridyloxy)butylthio)benzimidazole] | 18 | – |
| 110 | Cn1c(OCCCCCSc2nc3ccccc3[nH]2)nc2ccccc21 [Compound 9] | 6.2 | – |
| 100 | c1ccc2[nH]c(SCCCCCOc3nccs3)nc2c1 [Compound 5] | 11 | – |
| 680 | c1cnc(OCCCCCSc2nc3ccccc3[nH]2)nc1 [Compound 6] | 12 | – |
| 340 | c1ccc(OCCCCCSc2nc3ccccc3[nH]2)nc1 [Compound 1, 2-(5-(2-pyridyloxy)pentylthio)benzimidazole] | 4.1 | – |
| 5520 | c1ccc2[nH]c(SCCCCCOc3ccncc3)nc2c1 [Compound 19, 2-(5-(4-pyridyloxy)pentylthio)benzimidazole] | 4.2 | – |
| 150 | c1ccc(OCCCCCCCSc2nc3ccccc3[nH]2)nc1 [Compound 13, 2-(7-(2-pyridyloxy)heptylthio)benzimidazole] | 20 | – |
| 1220 | COc1ccc2nc(SCCCCCOc3ccccn3)[nH]c2c1 [Compound 17, 5-methoxy-2-(5-(2-pyridyloxy)pentylthio)benzimidazole] | 14 | – |
| 1210 | c1ccc2[nH]c(SCCCCCCOc3ccncc3)nc2c1 [Compound 25, 2-(6-(4-pyridyloxy)hexylthio)benzimidazole] | 2.8 | – |
| 1410 | Cc1ccc2nc(SCCCCCOc3ccccn3)[nH]c2c1 [Compound 16, 5-methyl-2-(5-(2-pyridyloxy)pentylthio)benzimidazole] | 14 | – |
